Data taken from paper PMC12751025, “α‑Aminoboronic Acid Moieties in Boro Dipeptides Modulate Proteasome Subunit Selectivity and Provide Access to Compounds with Potent Anticancer and Anti-Inflammatory Activity” (Journal of Medicinal Chemistry, 2025).
Where “and” joins values, the source holds several entries; their conditions need not be identical. Identical values can stand only once. Like-named read-outs stand apart in the source and are kept apart here.

How the values were obtained:
β5i subunit of human iCP = β5i subunit of human iCP (Homo sapiens, UniProt P20618+P28062); experiment: IC50 determination with fluorogenic substrate Ac-ANW-AMC; conditions: for IC50: IC50 β5i
Description: (§1) The measurements of the residual activity of control compounds were carried out at final compound concentrations of 1 μM in the assay buffer (50 mM Tris-HCl, 0.5 mM ethylenediaminetetraacetic acid (EDTA), pH 7.4). Stock solutions of the compounds were prepared in DMSO. To the 35 μL of solution of the compound in the buffer, 35 μL of 0.4 nM human iCP (South Bay Bio, San Jose, CA, USA) or human cCP (Boston Biochem, Inc., Cambridge, MA, USA) was added. For assays evaluating the activity of β2c and β2i, the buffer was modified by adding the proteasomal activator PA28β (Boston Biochem, Inc., Cambridge, MA, USA) at a final concentration of 6 nM. […] The substrates used were acetyl-Nle-Pro-Nle-Asp-7-amino-4-methylcoumarin (Ac-nLPnLD-AMC, Bachem, Bubendorf, Switzerland) for β1c, acetyl-Pro-Ala-Leu-7-amino-4-methylcoumarin (Ac-PAL-AMC, Boston Biochem, Inc., Cambridge, MA, USA) for β1i, acetyl-Arg-Leu-Arg-7-amino-4-methylcoumarin (Ac-RLR-AMC, Bachem, Bubendorf, Switzerland) for β2c and β2i, acetyl-Trp-Leu-Ala-7-amino-4-methylcoumarin (Ac-WLA-AMC, Bachem, Bubendorf, Switzerland) for β5c, and acetyl-Ala-Asn-Trp-7-amino-4-methylcoumarin (Ac-ANW-AMC, Bachem, Bubendorf, Switzerland) for β5i. Progress of the reaction was measured using a BioTek Synergy HT microplate reader, monitoring fluorescence at 460 nm (excitation at 360 nm) for 60 min at 37 °C. The initial linear ranges were used to calculate the reaction velocity and determine the residual activity.
(§2) The final assay mixtures contained 0.4 nM human iCP or cCP in assay buffer (50 mM Tris-HCl, 0.5 mM EDTA, pH 7.4, addition of PA28β for β2c and β2i subunits). […] After incubation at 37 °C for 30 min, the reaction was initiated by the addition of the substrate Ac-nLPnLD-AMC for β1c, Ac-PAL-AMC for β1i, Ac-RLR-AMC for β2c and β2i, Ac-WLA-AMC for β5c, and Ac-ANW-AMC for β5i. Fluorescence was monitored at 460 nm (excitation at 360 nm) for 60 min at 37 °C. The reaction progress was recorded and the initial linear phases were used to determine the velocity. The IC50 values were calculated using GraphPad Prism software (GraphPad Software, San Diego, CA, USA), and the results represent the mean values of at least three independent determinations.

β5c subunit of human cCP = molecular target: T1, β5c subunit of human cCP (Homo sapiens, UniProt P20618+P28074); experiment: IC50 determination with fluorogenic substrate Ac-WLA-AMC; format: biochemical
T1 construct: purchased Boston Biochem, Inc
Description: as §1, §2

β1i subunit of human iCP = β1i subunit of human iCP (Homo sapiens, UniProt P28065+P40306); experiment: IC50 determination with subunit-specific fluorogenic substrate Ac-PAL-AMC; conditions: for IC50: IC50 β1i
Description: as §1, §2

β1c subunit of human cCP = molecular target: T2, β1c subunit of human cCP (Homo sapiens, UniProt P28072+Q99436); experiment: IC50 determination with subunit-specific fluorogenic substrate Ac-nLPnLD-AMC; format: biochemical
T2 construct: purchased Boston Biochem, Inc
Description: as §1, §2

β2i subunit of human iCP = β2i subunit of human iCP (Homo sapiens, UniProt P40306+P49720); experiment: IC50 determination with fluorogenic substrate Ac-RLR-AMC (PA28β added)
Description: as §1, §2

[1] = system: all subunits of the human cCP and iCP; experiment: Subunit inhibition profile and preference across cCP and iCP subunits; format: biochemical; conditions: for fold lower potency on the cCP counterparts of β1i and β5i: β1c, β5c vs β1i
Description: as §2

LPS-stimulated PBMCs = experiment: Cytokine secretion, Cytometric Bead Array; format: cell-based, human; conditions: 250 nM; 1 h pretreatment, LPS 1 μg/mL, 24 h; IL-1, IL-6, IL-8, IL-10, TNF-α
Description: PBMCs (1.5 × 10^6/mL) were plated in culture media in 96-well round-bottom plates. After a 60 min treatment with compounds at 37 °C and 5% CO2, cells were stimulated with LPS (Escherichia coli, O111:B4, 1 μg/mL, Sigma) for 24 h. Supernatants were then collected and analyzed for cytokine release by Human Inflammatory Cytokine Cytometric Bead Array (BD Biosciences, New Jersey, USA).

β2c subunit of human cCP = molecular target: T3, β2c subunit of human cCP (Homo sapiens, UniProt P49720+Q99436); experiment: IC50 determination with fluorogenic substrate Ac-RLR-AMC (PA28β added); format: biochemical
T3 construct: purchased Boston Biochem, Inc
Description: Stock solutions of the compounds were prepared in DMSO. To the 35 μL of solution of the compound in the buffer, 35 μL of 0.4 nM human iCP (South Bay Bio, San Jose, CA, USA) or human cCP (Boston Biochem, Inc., Cambridge, MA, USA) was added. For assays evaluating the activity of β2c and β2i, the buffer was modified by adding the proteasomal activator PA28β (Boston Biochem, Inc., Cambridge, MA, USA) at a final concentration of 6 nM. […] The substrates used were acetyl-Nle-Pro-Nle-Asp-7-amino-4-methylcoumarin (Ac-nLPnLD-AMC, Bachem, Bubendorf, Switzerland) for β1c, acetyl-Pro-Ala-Leu-7-amino-4-methylcoumarin (Ac-PAL-AMC, Boston Biochem, Inc., Cambridge, MA, USA) for β1i, acetyl-Arg-Leu-Arg-7-amino-4-methylcoumarin (Ac-RLR-AMC, Bachem, Bubendorf, Switzerland) for β2c and β2i, acetyl-Trp-Leu-Ala-7-amino-4-methylcoumarin (Ac-WLA-AMC, Bachem, Bubendorf, Switzerland) for β5c, and acetyl-Ala-Asn-Trp-7-amino-4-methylcoumarin (Ac-ANW-AMC, Bachem, Bubendorf, Switzerland) for β5i. Progress of the reaction was measured using a BioTek Synergy HT microplate reader, monitoring fluorescence at 460 nm (excitation at 360 nm) for 60 min at 37 °C. The initial linear ranges were used to calculate the reaction velocity and determine the residual activity.
as §2

[2] = Solubility remark (exclusion from cell-based assays); format: physicochemical; conditions: reason for not using in cell-based assays
β1c = conditions: in parentheses in Table S2, SI reference list, cited from earlier work
β5i = conditions: in parentheses in Table S2; SI reference list; read-out: IC50 β5i, previously published data; cited from earlier work
β2c = conditions: in parentheses in Table S2; SI reference list; read-out: IC50 β2c, previously published data; cited from earlier work
β2i = conditions: in parentheses in Table S2; SI reference list; read-out: IC50 β2i, previously published data; cited from earlier work
β1i = conditions: in parentheses in Table S2; SI reference list; read-out: IC50 β1i, previously published data; cited from earlier work
β5c = conditions: in parentheses in Table S2; SI reference list; read-out: IC50 β5c, previously published data; cited from earlier work
[3] = human iCP, mean of at least three experiments, NA: not active at 50 μM
[4] = human cCP, mean of at least three experiments, NA: not active at 50 μM
[5] = read-out: IC50 β1c, previously published data

| Compound | IC50 (β5i subunit of human iCP; [3]) [nM] | IC50 (β5c subunit of human cCP; [4]) [nM] | IC50 (β1i subunit of human iCP; [3]) [nM] | IC50 (β1c subunit of human cCP; [4]) [nM] | IC50 (β2i subunit of human iCP) [nM] | IC50 (β2c subunit of human cCP; [4]) [nM] | also measured |
| --- | --- | --- | --- | --- | --- | --- | --- |
| O=C(N[C@@H](Cc1ccccc1)C(=O)N[C@H](B(O)O)c1ccccc1)c1cnccn1 [5a, ((R)-Phenyl((S)-3-Phenyl-2-(pyrazine-2-carboxamido)propanamido)methyl)boronic Acid] | 220 | 12800 | 746 |  |  |  |  |
| Cc1ccc([C@H](NC(=O)[C@H](Cc2ccccc2)NC(=O)c2cnccn2)B(O)O)cc1 [5b, ((R)-((S)-3-Phenyl-2-(pyrazine-2-carboxamido)propanamido)(p-tolyl)methyl)boronic Acid] | 32 | 712 | 42 | 545 | 9800 |  | fold lower potency on the cCP counterparts of β1i and β5i [1]: 10–20 fold; Effect on secretion of cytokines in LPS-stimulated PBMCs (LPS-stimulated PBMCs): significantly diminished ability to affect cytokine release |
| O=C(N[C@@H](Cc1ccccc1)C(=O)N[C@H](B(O)O)c1ccc(F)cc1)c1cnccn1 [5c, ((R)-(4-Fluorophenyl)((S)-3-phenyl-2-(pyrazine-2-carboxamido)propanamido)methyl)boronic Acid] | 32 | 225 | 38 | 526 |  |  | fold lower potency on the cCP counterparts of β1i and β5i [1]: 10–20 fold; Effect on secretion of cytokines in LPS-stimulated PBMCs (LPS-stimulated PBMCs): significantly diminished ability to affect cytokine release |
| O=C(N[C@@H](Cc1ccccc1)C(=O)N[C@H](B(O)O)c1ccc(Cl)cc1)c1cnccn1 [5d, ((R)-(4-Chlorophenyl)((S)-3-phenyl-2-(pyrazine-2-carboxamido)propanamido)methyl)boronic Acid] | 3 | 114 | 17 | 897 | 74500 | 1850 | IC50 for β5i, fold lower than for β5c (β5i subunit of human iCP; β5i vs β5c): 30 fold; IC50 for β1i, fold lower than for β1c (β1i subunit of human iCP; β1i vs β1c): 50 fold; solubility [2]: limited solubility |
| COc1ccc([C@H](NC(=O)[C@H](Cc2ccccc2)NC(=O)c2cnccn2)B(O)O)cc1 [5e, ((R)-(4-Methoxyphenyl)((S)-3-phenyl-2-(pyrazine-2-carboxamido)propanamido)methyl)boronic Acid] | 15 | 402 | 40 | 1340 | 10400 | 79000 | fold lower potency on the cCP counterparts of β1i and β5i [1]: 10–20 fold |
| CCOC(=O)c1cccc([C@H](NC(=O)[C@H](Cc2ccccc2)NC(=O)c2cnccn2)B(O)O)c1 [5f, ((R)-(3-(Ethoxycarbonyl)phenyl)((S)-3-phenyl-2-(pyrazine-2-carboxamido)propanamido)methyl)boronic Acid] | 1300 | 3300 | 22400 |  |  |  |  |
| O=C(N[C@@H](Cc1ccccc1)C(=O)N[C@H](B(O)O)c1ccc2c(c1)OCO2)c1cnccn1 [5g, ((R)-Benzo[d][1,3]dioxol-5-yl((S)-3-phenyl-2-(pyrazine-2-carboxamido)propanamido)methyl)boronic Acid] | 18 | 183 | 201 | 315 | 8600 | 45000 | IC50 for β5i, fold lower than for β1i, β1c, and β5c (β5i subunit of human iCP): 10 fold |
| O=C(N[C@@H](Cc1ccccc1)C(=O)N[C@H](B(O)O)c1ccc(-c2ccccc2)cc1)c1cnccn1 [5h, ((R)-[1,1′-Biphenyl]-4-yl((S)-3-phenyl-2-(pyrazine-2-carboxamido)propanamido)methyl)boronic Acid] | 24 | 12 | 270 | 1310 | 260 |  | IC50 (β1c subunit of human cCP; own assay): > 1000 nM; IC50 β2c (β2c subunit of human cCP; [4]): no detectable inhibition; IC50 for both β5 subunits, fold better than IC50 for β1i [1]: 10–20 fold; solubility [2]: limited solubility |
| O=C(N[C@@H](Cc1ccccc1)C(=O)N[C@@H](Cc1ccccc1)B(O)O)c1cnccn1 [5i, ((R)-2-Phenyl-1-((S)-3-phenyl-2-(pyrazine-2-carboxamido)propanamido)ethyl)boronic Acid] | 17 | 54 | 54 | 235 | 3400 | 4900 |  |
| CC[C@H](NC(=O)[C@H](Cc1ccccc1)NC(=O)c1cnccn1)B(O)O [5j, ((R)-1-((S)-3-phenyl-2-(pyrazine-2-carboxamido)propanamido)propyl)boronic Acid] | 19 | 11 | 2 | 21 | 1280 | 3400 |  |
| O=C(N[C@@H](Cc1ccccc1)C(=O)N[C@H](B(O)O)C1CC1)c1cnccn1 [5k, ((R)-Cyclopropyl((S)-3-phenyl-2-(pyrazine-2-carboxamido)propanamido)methyl)boronic Acid] | 9 | 5 | 172 | 827 | 499 | 440 | fold lower potency on β1c and β1i ([1]; compared with bortezomib): approximately 80 fold |
| CC(C)(C)ONC(=O)C[C@H](NC(=O)CCc1ccccc1)C(=O)N[C@@H](Cc1ccc(F)cc1)C(=O)NCc1cccc2ccccc12 [DPLG3] |  |  |  |  |  |  | IC50 (β1c; [5]): > 33300 nM; IC50 (β5i): 4.5 nM; IC50 (β2c): > 33300 nM; IC50 (β1i subunit of human iCP; own assay): > 1000 nM; IC50 (β2i): > 33300 nM; IC50 (β1i): > 33300 nM |
| C[C@]1(C(=O)[C@H](Cc2ccccc2)NC(=O)[C@H](CO)NC(=O)c2cccc(=O)[nH]2)CO1 [KZR-504] |  |  |  |  | > 1000 |  | IC50 (β2c subunit of human cCP; own assay): > 1000 nM; IC50 (β5c): 6900 nM; IC50 (β5i): 4300 nM; IC50 (β2c): > 250000 nM; IC50 (β1i subunit of human iCP; own assay): 59 ± 11 nM; IC50 (β2i): > 250000 nM; IC50 (β1i): 51 nM |
| COc1ccc([C@@H](O)[C@H](NC(=O)[C@H](C)NC(=O)CN2CCOCC2)C(=O)N[C@@H](CC2=CCCC2)C(=O)[C@@]2(C)CO2)cc1 [KZR-616, (2S,3R)-N-((S)-3-(Cyclopent-1-En-1-Yl)-1-((R)-2-Methyloxiran-2-yl)-1-Oxopropan-2-yl)-3-Hydroxy-3-(4-Methoxyphenyl)-2-((S)-2-(2-Morpholinoacetamido)Propanamido)Propenamide, reference compound] |  |  |  |  | 338 ± 122 |  | IC50 (β1c subunit of human cCP; own assay): > 1000 nM; IC50 (β2c subunit of human cCP; own assay): 403 ± 151 nM; IC50 (β1c; [5]): > 10600 nM; IC50 (β5i subunit of human iCP; own assay): 26 ± 21 nM; IC50 (β5c subunit of human cCP; own assay): 426 ± 48 nM; IC50 (β5c): 688 nM; IC50 (β5i): 39 nM; IC50 (β2c): 604 nM; IC50 (β1i subunit of human iCP; own assay): 96 ± 32 nM; IC50 (β2i): 623 nM; IC50 (β1i): 131 nM; Effect on secretion of cytokines in LPS-stimulated PBMCs (LPS-stimulated PBMCs): reduced the secretion of IL-1, IL-6, IL-8, IL-10, and TNF-α to a significant degree |
| COc1ccc(C[C@H](NC(=O)[C@H](C)NC(=O)CN2CCOCC2)C(=O)N[C@@H](CC2CCCC3CCCCC32)C(=O)[C@@]2(C)CO2)cc1 (stereo partly shown) [Lu-002i] |  |  |  |  |  |  | IC50 (β1c; [5]): > 100000 nM; IC50 (β5c): > 100000 nM; IC50 (β5i): > 100000 nM; IC50 (β1i): > 100000 nM |
| CC(C)C[C@H](NC(=O)C(C)(C)NC(=O)c1ccccc1C(F)(F)F)B(O)O [ML604440, reference compound] |  |  |  |  | > 1000 |  | IC50 (β1c subunit of human cCP; own assay): > 1000 nM; IC50 (β2c subunit of human cCP; own assay): > 1000 nM; IC50 (β5i subunit of human iCP; own assay): > 1000 nM; IC50 (β5c subunit of human cCP; own assay): > 1000 nM; IC50 (β5c): > 1000 nM; IC50 (β5i): > 1000 nM; IC50 (β1i subunit of human iCP; own assay): 8 ± 5 nM; IC50 (β1i): ~12.5 nM and 12.5 nM |
| COc1ccc(C[C@H](NC(=O)[C@H](C)NC(=O)CN2CCOCC2)C(=O)N[C@@H](Cc2ccccc2)C(=O)[C@@]2(C)CO2)cc1 [ONX-0914] |  |  |  |  |  |  | IC50 (β1c; [5]): > 10000 nM; IC50 (β5c): 54 nM; IC50 (β2c): 1100 nM; Effect on secretion of cytokines in LPS-stimulated PBMCs (LPS-stimulated PBMCs): Very similar result |
| CC(C)C[C@H](NC(=O)[C@H](CCc1ccccc1)NC(=O)CN1CCOCC1)C(=O)N[C@@H](Cc1ccccc1)C(=O)N[C@@H](CC(C)C)C(=O)[C@@]1(C)CO1 [carfilzomib] |  |  |  |  |  |  | IC50 (β1c; read-out: IC50 β1c, literature data): 13 nM |
